Reference: patent publication EP1222242B1, “CLEANING AGENTS WHICH CONTAIN SURFACTANTS AND ENZYME INHIBITORS” (Henkel Kommanditgesellschaft auf Aktien, priority 1999, dated 2001)
Entries after “also recorded” stand apart in the source; their conditions may differ. Where a SMILES comes first, the peptide text is derived from it. The star is where a group is joined. Cbz = O=C(OCc1ccccc1)*

Columns and labels:
Chymotrypsin = target: T1, Chymotrypsin (Bos taurus, UniProt P00766); experiment: Chymotrypsin enzyme activity test (BTEE substrate, absorbance at 256 nm); format: biochemical, Rind; details: for Hemmung von Chymotrypsin: result in words over the tested concentration range
T1 construct: Chymotrypsin entsteht im Pankreas aus inaktiven Vorstufen, sogenannten Zymogenen, durch Einwirkung von Trypsin; purchased Sigma; host or cells: bovine pancreas (Rinderpankreas)
From the text: (§1) Da die hauteigenen, am Desmosomenabbau beteiligten Proteasen nicht in ausreichender Menge zur Verfügung standen, dienten die Serin-Proteasen Trypsin und Chymotrypsin (Sigma) aus Rinderpankreas als Modellenzym, um die Hemmwirkung des erfindungsgemäß verwendeten Inhibitors N-CBZ-Gly-Pro-Phe-Pro-Leu, zu testen. Als Vergleich wurde auch das als t-PA-Inhibitor (tissue-type plasminogen activator) bekannte t-AMCHA [trans-4(Aminomethyl)-cyclohexancarbonsäure] getestet.
Der Nachweis der Chymotrypsin-Enzymaktivität erfolgt mit einer Modifikation analog zu den Angaben im Sigma Quality Control Test Procedure-Datenblatt für Chymotrypsin. Bei Ansätzen ohne Inhibitor wurden 1,42 mL Reagens A (80 mM Tris/HCl-Puffer, pH = 7,8; 25°C) zum Testansatz zugegeben. Bei Ansätzen mit Inhibitor wurden 1,32 mL Reagens A zum Testansatz zugegeben sowie 0,1 mL einer Lösung des entsprechenden Inhibitors in Reagens A (Konzentrationsreihe). Die Enzymaktivität wurde durch Umsetzung des Substrates N-Benzoyl-L-Tyrosinethylester (BTEE) zu N-Benzoyl-L-Tyrosin und Ethanol spektrophotometrisch bestimmt. Die Absorption des proteolytisch abgespaltenen N-Benzoyl-L-Tyrosins wird bei 256 nm gemessen.
(§2) Die Reaktionskinetiken wurden je 5 Minuten bei 25 °C detektiert, wobei der lineare Anstieg der Absorption (A) pro Zeiteinheit (t) ein Maß für die Aktivität des Enzyms (ΔA/Δt) ist. Die Aktivität des Enzyms in Abwesenheit eines Proteinase-Inhibitors, (ΔA1/Δt1 ), wurde auf 100% gesetzt. Unter analogen Bedingungen wurden die Aktivitäten in Gegenwart eines Inhibitors (ΔA2/Δt2) bestimmt. Die Hemmwirkung oder Minderung der Enzymaktivität entspricht dann: 100% - (ΔA2/Δt2 )/( ΔA1/Δt1)%.

[1] = tested on: Desquamation des Stratum corneum; experiment: Desquamation test on human skin biopsies (detergent-induced corneocyte shedding, corneocyte count); format: cell-based; details: for Desquamation der Humanhaut (Korneozyten-Abschuppung): result in words over the tested concentration range
From the text: Aus frischen Humanhautexplantaten (aus Mammareduktion) wurden 8mm^2-große Hautstücke ausgestanzt und mit einer Mischung aus Detergentien (Na-Dodecylsulfat, N,N-Dimethyldodecylaminoxid) in Abwesenheit und in Gegenwart der Inhibitoren behandelt. Unter dem Einfluß der Detergentien wird eine verstärkte Abschuppung (Desquamation) der Homschicht (Stratum corneum) künstlich induziert, also die Ausbildung trockener Haut im Versuch nachgeahmt. Die Anzahl abgeschuppter Hornzellen (Korneozyten) wurde unter dem Mikroskop in einer Schilling-Zählkammer bestimmt. Eine Verringerung der Korneozytenzahl weist auf eine hemmende Wirkung der getesteten potentiellen Inhibitoren hin.
Die Inhibitoren wurden in den entsprechenden Konzentrationen (vgl. Tabellen der Beispiele 7-12) im Inkubationspuffer angesetzt. Dieser bestand aus 0,1 M TRIS-HCl-Puffer (pH 8) mit 0,1 Gew.% Na-Azid und den Detergenzien Na-Dodecylsulfat (0,2 mM) und N,N-Dimethyldodecylaminoxid (8 mM) sowie EDTA (5 mM). Diese Inkubationspufferlösungen mit variierender Konzentration des Inhibitors werden nachfolgend als Testlösungen bezeichnet.
Es wurden zwei Arten von Blindkontrollen durchgeführt, eine Positiv- und eine Negativkontrolle. Für die sogenannte Positivkontrolle wurde nur der Inkubationspuffer verwendet, d. h. ohne Zusatz der Inhibitoren. Für die sogenannte Negativkontrolle wurde eine 5 mM Lösung von EDTA in TRIS-HCl-Puffer eingesetzt, d. h. ohne Zusatz der Detergentien.
Pro Reaktionsansatz wurden 0,5 mL der jeweiligen Testlösung oder des für die Blindkontrollen verwendeten Puffergemisches in verschließbaren Reaktionsgefäßen vorgelegt. Alle Ansätze wurden in vierfacher Ausfertigung durchgeführt, um die Reproduzierbarkeit der Ergebnisse zu gewährleisten.
Die Humanhaut wurde nach der Explantation in einer trockenen, sterilen Petrischale auf Kühlakkus transportiert. Nach Entfernung des Unterhautfett- und des Bindegewebes wurden mit Hilfe von sterilen Stanzen 8 mm^2-große Hautstücke präpariert. Diese wurden 15-20 min in steriler, physiologischer NaCl (0,9 %) gewaschen, zu den Reaktionsansätzen gegeben (1 Hautstück/Reaktionsansatz) und 44 Stunden bei 37° C inkubiert.
Nach Beendigung der Inkubationsphase wurden die Reaktionsgefäße 30 Sekunden auf einem Vortex-Mixer geschüttelt, um noch lose anhaftende Komeozyten von den Hautstücken abzulösen. Die Hautstücke wurden entnommen und die verbleibende Dispersion wurde 8 Minuten bei 11.000U/min zentrifugiert, um die Korneozyten zu isolieren. Der detergenshaltige Überstand (0,4 mL) wurde verworfen und der Rückstand mit 0,4 ml Aqua dest. gewaschen. Nach nochmaligem Zentrifugieren wurde der Überstand (0.4 mL) wiederum verworfen, das verbleibende Zellpellet in 0,4 mL Aqua dest. aufgenommen und die abgelösten Korneozyten in einer Schillingzählkammer unter einem Lichtmikroskop ausgezählt.
Nachfolgende Tabellen geben eine Zusammenstellung über die Anzahl abgelöster Korneozyten: • nach Behandlung der Haut-Biopsien mit einem Detergentiengemisch in Abwesenheit der Inhibitoren (Positivkontrolle) • nach Behandlung der Haut-Biopsien mit einer Pufferlösung in Abwesenheit der Detergentien und Inhibitoren (Negativkontrolle) • nach Behandlung der Haut-Biopsien mit einem Detergentiengemisch, welches die Inhibitoren in variierender Konzentration enthält.

Trypsin = target: T2, Trypsin (Bos taurus, UniProt P00760); experiment: Trypsin enzyme activity test (BAPNA substrate, absorbance at 405 nm); format: biochemical, Rind; details: for Hemmung von Trypsin: result in words over the tested concentration range
T2 construct: aus der vom Pankreas gebildeten Vorstufe Trypsinogen durch Abspaltung eines Hexapeptids entsteht; purchased Sigma; host or cells: bovine pancreas (Rinderpankreas)
T2 sequence (P00760 24-246): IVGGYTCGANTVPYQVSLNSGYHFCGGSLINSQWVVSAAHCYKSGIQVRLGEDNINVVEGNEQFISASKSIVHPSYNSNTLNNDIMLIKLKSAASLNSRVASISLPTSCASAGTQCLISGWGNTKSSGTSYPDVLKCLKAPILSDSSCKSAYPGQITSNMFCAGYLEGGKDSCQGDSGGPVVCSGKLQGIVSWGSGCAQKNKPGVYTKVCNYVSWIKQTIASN
From the text: as §1
Auch der Nachweis der Trypsin-Enzymaktivität erfolgt mit einer Modifikation analog zu den Angaben im Sigma Quality Control Test Procedure-Datenblatt für Trypsin. Anstelle von Aprotinin (Reagens F) wurden hier die erfindungsgemäßen Inhibitoren eingesetzt. Hierfür wurde eine Konzentrationsreihe der Inhibitoren in Reagens E angesetzt. Die Enzymaktivität wurde durch Umsetzung des Substrates Nα-Benzoyl-DL-Arginin-p-Nitroanilin (BAPNA) zu Nα-Benzoyl-DL-Arginin und p-Nitroanilin spektrophotometrisch bestimmt. Die Absorption des proteolytisch abgespaltenen p-Nitroanilins wird bei 405 nm gemessen.
as §2

[2] = inhibitor concentration 0,01 % (w/v), 25 °C
[3] = inhibitor concentration 0,1 % (w/v), 25 °C
[4] = inhibitor concentration 0,05 % (w/v), 25 °C
[5] = inhibitor concentration 0,5 % (w/v), 25 °C
[6] = Homo sapiens, pH 8, inhibitor 0,5 % (w/v), corneocyte count, positive control = 100 %, 44 h, 37° C, read-out: Desquamation an Humanhaut ex vivo
[7] = Homo sapiens, pH 8, inhibitor 1,0 % (w/v), corneocyte count, positive control = 100 %, 44 h, 37° C, read-out: Desquamation an Humanhaut ex vivo
[8] = inhibitor 0,1 % (w/v), corneocyte count, positive control = 100 %, 44 h, 37° C
[9] = inhibitor 0,5 % (w/v), corneocyte count, positive control = 100 %, 44 h, 37° C
[10] = inhibitor concentration 0,03 % (w/v), 25 °C
[11] = inhibitor concentration 0,001 % (w/v), 25 °C
[12] = Homo sapiens, pH 8, inhibitor 0,1 % (w/v), corneocyte count, positive control = 100 %, 44 h, 37° C, read-out: Desquamation an Humanhaut ex vivo
[13] = inhibitor concentration 0,005 % (w/v), 25 °C

Molecule	Hemmwirkung (Minderung der Chymotrypsin-Aktivität) (Chymotrypsin; [2])	Hemmwirkung (Minderung der Chymotrypsin-Aktivität) (Chymotrypsin; [3])	Hemmwirkung (Minderung der Chymotrypsin-Aktivität) (Chymotrypsin; [4])	Hemmung von Chymotrypsin (Chymotrypsin)	activity at 0.5 % [1, 6] [%]	activity at 1 % [1, 7] [%]	Desquamation der Humanhaut (Korneozyten-Abschuppung) [1]	Hemmwirkung (Minderung der Trypsin-Aktivität) (Trypsin; [2])	Hemmung von Trypsin (Trypsin)	Desquamation an Humanhaut ex vivo [1, 8] [%]	Desquamation an Humanhaut ex vivo [1, 9] [%]	Hemmwirkung (Minderung der Chymotrypsin-Aktivität) (Chymotrypsin; [11])	Hemmwirkung (Minderung der Trypsin-Aktivität) (Trypsin; [11])	activity at 0.1 % [1, 12] [%]	other results
NC[C@H]1CC[C@H](C(=O)O)CC1 [t-AMCHA, trans-4(Aminomethyl)-cyclohexancarbonsäure]	keine Hemmwirkung messbar	- " -	- " -	nicht beeinträchtigt	51.3	44	Desquamationsinhibitor mit konzentrationsabhängigem Profil; also recorded: signifikant reduziert	9%	in Abhängigkeit von der Inhibitor-Konzentration beeinträchtigt						Hemmwirkung (Minderung der Chymotrypsin-Aktivität) (Chymotrypsin; [5]): - " -; Hemmwirkung (Minderung der Chymotrypsin-Aktivität) (Chymotrypsin; inhibitor concentration 1,0 % (w/v), 25 °C): - " -; activity at 2.5 % ([1]; Homo sapiens, pH 8, inhibitor 2,5 % (w/v), corneocyte count, positive control = 100 %, 44 h, 37° C, read-out: Desquamation an Humanhaut ex vivo): 37.1%; inhibition at 0.1 % (Trypsin; 5 min, inhibitor concentration 0,1 % (w/v), 25 °C, read-out: Hemmwirkung (Minderung der Trypsin-Aktivität)): 51%; inhibition at 0.05 % (Trypsin; 5 min, inhibitor concentration 0,05 % (w/v), 25 °C, read-out: Hemmwirkung (Minderung der Trypsin-Aktivität)): 36%; inhibition at 0.5 % (Trypsin; 5 min, inhibitor concentration 0,5 % (w/v), 25 °C, read-out: Hemmwirkung (Minderung der Trypsin-Aktivität)): 85%; inhibition at 1 % (Trypsin; 5 min, inhibitor concentration 1,0 % (w/v), 25 °C, read-out: Hemmwirkung (Minderung der Trypsin-Aktivität)): 93%
NCCc1ccc(S(=O)(=O)F)cc1 [Pefabloc® SC, 4-(2-Aminoethyl)phenylsulfonylfluorid]				starke, konzentrationsabhängige Hemmung					starke, konzentrationsabhängige Hemmung	34	11				Hemmung von Chymotrypsin (Chymotrypsin; listed as Pefabloc®): effektiver Inhibitor; Abschuppung reduziert um ([1]; inhibitor 0,5 %, reduction versus positive control): ~90%; Hemmung von Trypsin (Trypsin; listed as Pefabloc®): effektiver Inhibitor
CC(C)CC(NC(=O)C1CCCN1C(=O)C(Cc1ccccc1)NC(=O)C1CCCN1C(=O)CNC(=O)OCc1ccccc1)C(=O)O (stereo not drawn) [N-CBZ-GPFPL, N-CBZ-Gly-Pro-Phe-Pro-Leu] (Cbz-GPFPL-OH; configuration not given here)				spezifische Hemmung			signifikant reduziert		nicht beeinträchtigt	93	51				inhibition at 0.06 % (Chymotrypsin; 5 min, pH 7.8, inhibitor concentration 0,06 % (w/v), 25 °C, read-out: Hemmwirkung (Minderung der Chymotrypsin-Aktivität)): 7%; inhibition at 0.33 % (Chymotrypsin; 5 min, pH 7.8, inhibitor concentration 0,33 % (w/v), 25 °C, read-out: Hemmwirkung (Minderung der Chymotrypsin-Aktivität)): 27%; Hemmwirkung (Minderung der Chymotrypsin-Aktivität) (Chymotrypsin; [10]): 2%; Reduktion der Abschuppung (Desquamation der Haut) ([1]; inhibitor 0,5 %, result in words): um die Hälfte reduziert; Hemmwirkung (Minderung der Trypsin-Aktivität) (Trypsin; [10]): keine Hemmwirkung messbar; Hemmwirkung (Minderung der Trypsin-Aktivität) (Trypsin; inhibitor concentration 0,06 % (w/v), 25 °C): -"-; Hemmwirkung (Minderung der Trypsin-Aktivität) (Trypsin; inhibitor concentration 0,33 % (w/v), 25 °C): -"-
Borsäure	keine Hemmwirkung meßbar	23%		schwache Hemmung; also recorded: nur schwach			signifikant reduziert	Keine Hemmwirkung meßbar	schwache Hemmung; also recorded: nur schwach	50		keine Hemmwirkung meßbar	Keine Hemmwirkung meßbar		Desquamation an Humanhaut ex vivo ([1]; inhibitor 0,01 % (w/v), corneocyte count, positive control = 100 %, 44 h, 37° C): 86%; Desquamation an Humanhaut ex vivo ([1]; inhibitor 0,2 % (w/v), corneocyte count, positive control = 100 %, 44 h, 37° C): 47%; Reduktion der Abschuppung der Korneozyten ([1]; inhibitor 0,2 %, result in words): halbieren; Hemmwirkung (Minderung der Trypsin-Aktivität) (Trypsin; [3]): 6%; Hemmwirkung (Minderung der Trypsin-Aktivität) (Trypsin; [5]): 23%
OB(O)c1ccccc1 [Phenylboronsäure]	9%		45%	deutliche, konzentrationsabhängige Hemmung			signifikant reduziert	Keine Hemmung meßbar	nur mäßig beeinträchtigt			keine Hemmung meßbar	Keine Hemmung meßbar	60	activity at 0.05 % ([1]; Homo sapiens, pH 8, inhibitor 0,05 % (w/v), corneocyte count, positive control = 100 %, 44 h, 37° C, read-out: Desquamation an Humanhaut ex vivo): 89%; Reduktion der Abschuppung der Korneozyten ([1]; inhibitor 0,1 %, result in words): siginifikant reduzieren; Hemmwirkung (Minderung der Trypsin-Aktivität) (Trypsin; [4]): 5%; Hemmwirkung (Minderung der Trypsin-Aktivität) (Trypsin; [13]): Keine Hemmung meßbar
O=C(/C=C/c1ccc(O)c(O)c1)O[C@H](Cc1ccc(O)c(O)c1)C(=O)O [Rosmarinsäure]				gering	60	33.8	konzentrationsabhängige Reduktion; also recorded: signifikant reduziert	61%	starke, konzentrationsabhängige Hemmung			keine Hemmwirkung messbar		82.5	Hemmwirkung (Minderung der Chymotrypsin-Aktivität) (Chymotrypsin; [13]): 2%; Hemmwirkung (Minderung der Chymotrypsin-Aktivität) (Chymotrypsin; inhibitor concentration 0,0075 % (w/v), 25 °C): 7%; Desquamation an Humanhaut ex vivo ([1]; inhibitor 1,0 % (w/v), corneocyte count, positive control = 100 %, 44 h, 37° C): 33,8%
